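Assay format: 96-well plates, 48-hour exposure. The concentration for 50% growth inhibition is given as GI50. TGI: concentration producing complete growth inhibition.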
How the values were obtained:
Assay in all cases: NCI-60 cell line screen, 48 h
786-0 renal = system: 786-0 renal
A498 renal = system: A498 renal
A549 NSCLC = system: A549 NSCLC
BT-549 breast = system: BT-549 breast
COLO 205 colon = system: COLO 205 colon
HOP-62 NSCLC = system: HOP-62 NSCLC
HOP-92 NSCLC = system: HOP-92 NSCLC
HS 578T breast = system: HS 578T breast
K-562 leukemia = system: K-562 leukemia
KM12 colon = system: KM12 colon
MALME-3M melanoma = system: MALME-3M melanoma
MCF7 breast = system: MCF7 breast
MDA-MB-435 = system: MDA-MB-435
MOLT-4 leukemia = system: MOLT-4 leukemia
OVCAR-3 ovarian = system: OVCAR-3 ovarian
OVCAR-8 ovarian = system: OVCAR-8 ovarian
PC-3 prostate = system: PC-3 prostate
SK-MEL-2 melanoma = system: SK-MEL-2 melanoma
SK-OV-3 ovarian = system: SK-OV-3 ovarian
SR leukemia = system: SR leukemia
SW-620 colon = system: SW-620 colon
T-47D breast = system: T-47D breast
TK-10 renal = system: TK-10 renal
UACC-257 melanoma = system: UACC-257 melanoma
ACHN renal = system: ACHN renal
CAKI-1 renal = system: CAKI-1 renal
DU-145 prostate = system: DU-145 prostate
EKVX NSCLC = system: EKVX NSCLC
HCT-116 colon = system: HCT-116 colon
HCT-15 colon = system: HCT-15 colon
HL-60(TB) leukemia = system: HL-60(TB) leukemia
HT29 colon = system: HT29 colon
IGROV1 ovarian = system: IGROV1 ovarian
M14 melanoma = system: M14 melanoma
MDA-MB-231 breast = system: MDA-MB-231 breast
NCI-H226 lung = system: NCI-H226 lung
NCI-H23 lung = system: NCI-H23 lung
NCI-H460 lung = system: NCI-H460 lung
NCI-H522 lung = system: NCI-H522 lung
NCI/ADR-RES ovarian = system: NCI/ADR-RES ovarian
OVCAR-4 ovarian = system: OVCAR-4 ovarian
OVCAR-5 ovarian = system: OVCAR-5 ovarian
RPMI-8226 leukemia = system: RPMI-8226 leukemia
RXF 393 renal = system: RXF 393 renal
SF-268 CNS = system: SF-268 CNS
SF-295 CNS = system: SF-295 CNS
SF-539 CNS = system: SF-539 CNS
SK-MEL-28 melanoma = system: SK-MEL-28 melanoma
SK-MEL-5 melanoma = system: SK-MEL-5 melanoma
SN12C renal = system: SN12C renal
SNB-19 CNS = system: SNB-19 CNS
SNB-75 CNS = system: SNB-75 CNS
U251 CNS = system: U251 CNS
UACC-62 melanoma = system: UACC-62 melanoma
UO-31 renal = system: UO-31 renal

COc1cc(/C=C2\CCCC3=C2N=C2SC(C)=NN2C3c2cc(OC)c(OC)c(OC)c2)cc(OC)c1OC (configuration not stated)
GI50 (786-0 renal): > 100 µM
TGI (786-0 renal): > 100 µM
GI50 (A498 renal): 0.153 µM
TGI (A498 renal): > 100 µM
GI50 (A549 NSCLC): > 100 µM
TGI (A549 NSCLC): > 100 µM
GI50 (BT-549 breast): > 100 µM
TGI (BT-549 breast): > 100 µM
GI50 (COLO 205 colon): 0.429 µM
TGI (COLO 205 colon): > 100 µM
GI50 (HOP-62 NSCLC): > 100 µM
TGI (HOP-62 NSCLC): > 100 µM
GI50 (HOP-92 NSCLC): > 100 µM
TGI (HOP-92 NSCLC): > 100 µM
GI50 (HS 578T breast): > 100 µM
TGI (HS 578T breast): > 100 µM
GI50 (K-562 leukemia): 0.42 µM
TGI (K-562 leukemia): > 100 µM
GI50 (KM12 colon): 0.322 µM
TGI (KM12 colon): > 100 µM
GI50 (MALME-3M melanoma): > 100 µM
TGI (MALME-3M melanoma): > 100 µM
GI50 (MCF7 breast): 0.319 µM
TGI (MCF7 breast): > 100 µM
GI50 (MDA-MB-435): 0.341 µM
TGI (MDA-MB-435): > 100 µM
GI50 (MOLT-4 leukemia): 0.391 µM
TGI (MOLT-4 leukemia): > 100 µM
GI50 (OVCAR-3 ovarian): 0.58 µM
TGI (OVCAR-3 ovarian): > 100 µM
GI50 (OVCAR-8 ovarian): 0.311 µM
TGI (OVCAR-8 ovarian): > 100 µM
GI50 (PC-3 prostate): > 100 µM
TGI (PC-3 prostate): > 100 µM
GI50 (SK-MEL-2 melanoma): > 100 µM
TGI (SK-MEL-2 melanoma): > 100 µM
GI50 (SK-OV-3 ovarian): > 100 µM
TGI (SK-OV-3 ovarian): > 100 µM
GI50 (SR leukemia): 0.347 µM
TGI (SR leukemia): > 100 µM
GI50 (SW-620 colon): 0.41 µM
TGI (SW-620 colon): > 100 µM
GI50 (T-47D breast): > 100 µM
TGI (T-47D breast): > 100 µM
GI50 (TK-10 renal): > 100 µM
TGI (TK-10 renal): > 100 µM
GI50 (UACC-257 melanoma): > 100 µM
TGI (UACC-257 melanoma): > 100 µM

COc1ccc(C(=O)/C=C/SC(=NC#N)SC)cc1
TGI (786-0 renal): 38.8 µM
TGI (A498 renal): 60.7 µM
TGI (A549 NSCLC): > 100 µM
TGI (ACHN renal): 46.7 µM
TGI (CAKI-1 renal): 54.8 µM
TGI (COLO 205 colon): 38.8 µM
TGI (DU-145 prostate): 53.5 µM
TGI (EKVX NSCLC): > 100 µM
TGI (HCT-116 colon): 28.1 µM
TGI (HCT-15 colon): 28.8 µM
TGI (HL-60(TB) leukemia): > 100 µM
TGI (HOP-62 NSCLC): 44.1 µM
TGI (HOP-92 NSCLC): > 100 µM
TGI (HS 578T breast): 68.3 µM
TGI (HT29 colon): 49.5 µM
TGI (IGROV1 ovarian): 57.3 µM
TGI (K-562 leukemia): > 100 µM
TGI (KM12 colon): 63.9 µM
TGI (M14 melanoma): 35.1 µM
TGI (MALME-3M melanoma): 50.3 µM
TGI (MCF7 breast): 38.2 µM
TGI (MDA-MB-231 breast): 33.2 µM
TGI (MDA-MB-435): 49.2 µM
TGI (MOLT-4 leukemia): 58 µM
TGI (NCI-H226 lung): 43.5 µM
TGI (NCI-H23 lung): 33.2 µM
TGI (NCI-H460 lung): > 100 µM
TGI (NCI-H522 lung): 37.1 µM
TGI (NCI/ADR-RES ovarian): 42.3 µM
TGI (OVCAR-3 ovarian): 37.2 µM
TGI (OVCAR-4 ovarian): > 100 µM
TGI (OVCAR-5 ovarian): 47.1 µM
TGI (OVCAR-8 ovarian): 46.8 µM
TGI (PC-3 prostate): > 100 µM
TGI (RPMI-8226 leukemia): > 100 µM
TGI (RXF 393 renal): 35.1 µM
TGI (SF-268 CNS): 70.3 µM
TGI (SF-295 CNS): 76 µM
TGI (SF-539 CNS): 45.7 µM
TGI (SK-MEL-2 melanoma): 43.8 µM
TGI (SK-MEL-28 melanoma): 96.7 µM
TGI (SK-MEL-5 melanoma): 39 µM
TGI (SK-OV-3 ovarian): 47.5 µM
TGI (SN12C renal): 75.2 µM
TGI (SNB-19 CNS): 35.2 µM
TGI (SNB-75 CNS): 89.2 µM
TGI (SR leukemia): 19.6 µM
TGI (SW-620 colon): 48.3 µM
TGI (T-47D breast): 47.3 µM
TGI (TK-10 renal): 42.2 µM
TGI (U251 CNS): 37.9 µM
TGI (UACC-257 melanoma): 40.5 µM
TGI (UACC-62 melanoma): 43.8 µM
TGI (UO-31 renal): 37.4 µM
